In patent US7589104B2, “Tricyclic-bridged piperidinyline derivatives as §-opioid modulators” (Janssen Pharmaceutica NV, priority 2004, dated 2009):
Like-named read-outs stand apart in the source and are kept apart here.

Experiments:
delta opioid receptor = biological target: T1, delta opioid receptor (Rattus norvegicus, UniProt P33533); experiment: Rat Brain Delta Opioid Receptor Binding Assay
T1 construct: from tissue; host or cells: forebrain of male Wistar rats (Charles River)

mu opioid receptor = biological target: T2, mu opioid receptor (Rattus norvegicus, UniProt P33535); experiment: Rat Brain Mu Opioid Receptor Binding Assay
T2 construct: Following incubation with the mu selective peptide ligand, ˜0.8 nM [^3H]DAMGO; from tissue; host or cells: forebrain of male Wistar rats (Charles River)
T2 sequence (P33535 whole entry): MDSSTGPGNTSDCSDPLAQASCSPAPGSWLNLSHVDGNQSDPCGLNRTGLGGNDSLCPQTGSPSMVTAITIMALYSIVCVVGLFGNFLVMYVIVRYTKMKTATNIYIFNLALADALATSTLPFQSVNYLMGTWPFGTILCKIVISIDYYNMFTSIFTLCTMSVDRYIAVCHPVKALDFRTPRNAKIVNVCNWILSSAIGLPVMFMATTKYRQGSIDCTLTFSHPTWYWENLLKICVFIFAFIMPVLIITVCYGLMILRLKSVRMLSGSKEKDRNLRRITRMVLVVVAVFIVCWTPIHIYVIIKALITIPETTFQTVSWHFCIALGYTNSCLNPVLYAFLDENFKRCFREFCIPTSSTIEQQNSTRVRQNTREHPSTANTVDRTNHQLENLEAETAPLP

[1] = rat forebrain membranes, [3H]DPDPE or [3H]naltrindole, read-out: delta (Ki)
[2] = rat forebrain membranes, [3H]DAMGO, read-out: mu (Ki)

T1 sequence (P33533 whole entry): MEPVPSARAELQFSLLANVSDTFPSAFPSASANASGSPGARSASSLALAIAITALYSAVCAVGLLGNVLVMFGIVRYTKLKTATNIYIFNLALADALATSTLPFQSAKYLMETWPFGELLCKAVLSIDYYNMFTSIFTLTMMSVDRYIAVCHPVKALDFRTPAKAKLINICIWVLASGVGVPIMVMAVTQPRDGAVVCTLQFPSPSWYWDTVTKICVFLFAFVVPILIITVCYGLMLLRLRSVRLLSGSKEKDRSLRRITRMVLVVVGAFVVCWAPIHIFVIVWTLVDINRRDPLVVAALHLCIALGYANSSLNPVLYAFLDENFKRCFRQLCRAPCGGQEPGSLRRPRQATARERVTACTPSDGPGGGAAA

With `COc1cccc2c1Oc1cc(-c3ccccc3NC(C)=O)ccc1C2C1CC2CCC(C1)N2` (stereo not shown) [Compound 2l, N-{2-[9-(8-Aza-bicyclo[3.2.1]oct-3-yl)-5-methoxy-9H-xanthen-3-yl]-phenyl}-acetamide] the Ki (delta opioid receptor; [1]) was 180 nM and the Ki (mu opioid receptor; [2]) was 3700 nM.

In the case of `c1cncc(-c2ccc3c(c2)Oc2ccccc2C3C2CC3CCC(C2)N3)c1` (stereo not shown) [Compound 3b, 3-(3-Pyridin-3-yl-9H-xanthen-9-yl)-8-aza-bicyclo[3.2.1]octane], the Ki (delta opioid receptor) is reported as 3150 nM and the Ki (mu opioid receptor) is reported as 4440 nM.

Compound `O=C(c1ccc2c(c1)Oc1ccccc1C2C1CC2CCC(C1)N2)N1CCCC1` (stereo not shown) [Compound 3g, [9-(8-Aza-bicyclo[3.2.1]oct-3-yl)-9H-xanthen-3-yl]-pyrrolidin-1-yl-methanone] has a Ki (delta opioid receptor) of 831 nM and a Ki (mu opioid receptor) of 7600 nM.

Compound `CC(=O)Nc1ccccc1-c1ccc2c(c1)Oc1c(O)cccc1C2C1CC2CCC(C1)N2` (stereo not shown) [Compound 3l, N-{2-[9-(8-Aza-bicyclo[3.2.1]oct-3-yl)-5-hydroxy-9H-xanthen-3-yl]-phenyl}-acetamide] has a Ki (delta opioid receptor) of 1.55 nM and a Ki (mu opioid receptor) of 20.4 nM.

With `c1cncc(-c2ccc3c(c2)Oc2ccccc2C3C2CC3CCC(C2)N3Cc2ccoc2)c1` (stereo not shown) [Compound 4b, 8-Furan-3-ylmethyl-3-(3-pyridin-3-yl-9H-xanthen-9-yl)-8-aza-bicyclo[3.2.1]-octane] the Ki (delta opioid receptor) was 29.2 nM and the Ki (mu opioid receptor) was 556 nM.

Compound `c1ccc2c(c1)Oc1cc(-c3ccoc3)ccc1C2C1CC2CCC(C1)N2` (stereo not shown) [Compound 5b, 3-(3-Furan-3-yl-9H-xanthen-9-yl)-8-aza-bicyclo[3.2.1]octane] has a Ki (delta opioid receptor) of 3450 nM and a Ki (mu opioid receptor) of 19700 nM.

With `c1ccc2c(c1)Oc1cc(-c3nnn[nH]3)ccc1C2C1CC2CCC(C1)N2` (stereo not shown) [Compound 5j, 3-[3-(1H-Tetrazol-5-yl)-9H-xanthen-9-yl]-8-aza-bicyclo[3.2.1]octane] the Ki (delta opioid receptor) was 477 nM and the Ki (mu opioid receptor) was 4780 nM.

With `c1ccc2c(c1)Oc1cc(-c3ccsc3)ccc1C2C1CC2CCC(C1)N2` (stereo not shown) [Compound 6b, 3-(3-Thiophen-3-yl-9H-xanthen-9-yl)-8-aza-bicyclo[3.2.1]octane] the Ki (delta opioid receptor) was 5800 nM and the Ki (mu opioid receptor) was 83200 nM.

`CCN(CC)C(=O)c1ccc2c(c1)Oc1c(C)cccc1C2C1CC2CCC(C1)N2` (stereo not shown) [Compound 6h, 9-(8-Aza-bicyclo[3.2.1]oct-3-yl)-5-methyl-9H-xanthene-3-carboxylic acid diethylamide] showed a Ki (delta opioid receptor) of 73 nM and a Ki (mu opioid receptor) of 4700 nM.

Compound `CCN(CC)C(=O)c1ccc2c(c1)Oc1c(Cl)cccc1C2C1CC2CCC(C1)N2` (stereo not shown) [Compound 6i, 9-(8-Aza-bicyclo[3.2.1]oct-3-yl)-5-chloro-9H-xanthene-3-carboxylic acid diethylamide] has a Ki (delta opioid receptor) of 3350 nM and a Ki (mu opioid receptor) greater than 10000 nM.

For `CC(=O)Nc1ccccc1-c1ccc2c(c1)Oc1ccccc1C2C1CC2CCC(C1)N2` (stereo not shown) [Compound 7b, N-{2-[9-(8-Aza-bicyclo[3.2.1]oct-3-yl)-9H-xanthen-3-yl]-phenyl}-acetamide], the Ki (delta opioid receptor) was 426 nM and the Ki (mu opioid receptor) was 6380 nM.

With `CCN(CC)C(=O)c1ccc2c(c1)Oc1c(-c3ccccc3)cccc1C2C1CC2CCC(C1)N2` (stereo not shown) [Compound 7d, 9-(8-Aza-bicyclo[3.2.1]oct-3-yl)-5-phenyl-9H-xanthene-3-carboxylic acid diethylamide] the Ki (delta opioid receptor) was 91 nM and the Ki (mu opioid receptor; [2]) was 8200 nM.

`CCN(CC)C(=O)c1ccc2c(c1)Oc1ccc(F)cc1C2C1CC2CCC(C1)N2` (stereo not shown) [Compound 7e, 9-(8-Aza-bicyclo[3.2.1]oct-3-yl)-7-fluoro-9H-xanthene-3-carboxylic acid diethylamide] gave a Ki (delta opioid receptor) of 294 nM and a Ki (mu opioid receptor) of 44000 nM.

`CCN(CC)C(=O)c1ccc2c(c1)Oc1ccc(Br)cc1C2C1CC2CCC(C1)N2` (stereo not shown) [Compound 7f, 9-(8-Aza-bicyclo[3.2.1]oct-3-yl)-7-bromo-9H-xanthene-3-carboxylic acid diethylamide] was tested, and the Ki (delta opioid receptor) was 174 nM and the Ki (mu opioid receptor) was 1750 nM.

With `COc1cccc2c1Oc1cc(-c3cccnc3)ccc1C2C1CC2CCC(C1)N2` (stereo not shown) [Compound 7k, 3-(5-Methoxy-3-pyridin-3-yl-9H-xanthen-9-yl)-8-aza-bicyclo[3.2.1]octane] the Ki (delta opioid receptor; [1]) was 655 nM and the Ki (mu opioid receptor; [2]) was 7740 nM.

For `c1ccc2c(c1)Oc1cc(-c3cnc4ccccc4c3)ccc1C2C1CC2CCC(C1)N2` (stereo not shown) [Compound 8b, 3-[9-(8-Aza-bicyclo[3.2.1]oct-3-yl)-9H-xanthen-3-yl]-quinoline], the Ki (delta opioid receptor) was 4860 nM and the Ki (mu opioid receptor) was 27700 nM.

With `Oc1cccc2c1Oc1cc(-c3cccnc3)ccc1C2C1CC2CCC(C1)N2` (stereo not shown) [Compound 8k, 9-(8-Aza-bicyclo[3.2.1]oct-3-yl)-6-pyridin-3-yl-9H-xanthen-4-ol] the Ki (delta opioid receptor) was 9.61 nM and the Ki (mu opioid receptor) was 27.2 nM.

Work on `CCN(CC)C(=O)c1ccc2c(c1)Oc1ccccc1C2C1CC2CCC(C1)N2` (stereo not shown) [Compound 9a, 9-(8-Aza-bicyclo[3.2.1]oct-3-yl)-9H-xanthene-3-carboxylic acid diethylamide] yielded a Ki (delta opioid receptor) of 140 nM and a Ki (mu opioid receptor) of 6450 nM.

`c1cncc(-c2ccc3c(c2)Oc2ccccc2C3C2CC3CCC(C2)N3Cc2cccs2)c1` (stereo not shown) [Compound 9b, 3-(3-Pyridin-3-yl-9H-xanthen-9-yl)-8-thiophen-2-ylmethyl-8-aza-bicyclo[3.2.1]octane] showed a Ki (delta opioid receptor) of 182 nM and a Ki (mu opioid receptor) of 1610 nM.

For `c1ccc(CN2C3CCC2CC(C2c4ccccc4Oc4cc(-c5nnn[nH]5)ccc42)C3)cc1` (stereo not shown) [Compound 9j, 8-Benzyl-3-[3-(1H-tetrazol-5-yl)-9H-xanthen-9-yl]-8-aza-bicyclo[3.2.1]octane], the Ki (delta opioid receptor) was 176 nM.

`Oc1cccc2c1Oc1cc(-c3cccnc3)ccc1C2C1CC2CCC(C1)N2Cc1ccoc1` (stereo not shown) [Compound 9k, 9-(8-Furan-3-ylmethyl-8-aza-bicyclo[3.2.1]oct-3-yl)-6-pyridin-3-yl-9H-xanthen-4-ol] was tested, and the Ki (delta opioid receptor) was 50.3 nM.

For `CC(=O)Nc1ccccc1-c1ccc2c(c1)Oc1c(O)cccc1C2C1CC2CCC(C1)N2Cc1ncc[nH]1` (stereo not shown) [Compound 9l, N-(2-{5-Hydroxy-9-[8-(1H-imidazol-2-ylmethyl)-8-aza-bicyclo[3.2.1]oct-3-yl]-9H-xanthen-3-yl}-phenyl)-acetamide], the Ki (delta opioid receptor) was 4.9 nM.

`CCN(CC)C(=N)c1ccc2c(c1)Oc1ccccc1C2C1CC2CCC(C1)N2CCc1ccccc1` (stereo not shown) [Compound 9m, N,N-Diethyl-9-(8-phenethyl-8-aza-bicyclo[3.2.1]oct-3-yl)-9H-xanthene-3-carboxamidine] was tested, and the Ki (delta opioid receptor) was 903 nM.

With `c1ccc(CN2C3CCC2CC(C2c4ccccc4Oc4cc(-c5cccnc5)ccc42)C3)nc1` (stereo not shown) [Compound 10b, 8-Pyridin-2-ylmethyl-3-(3-pyridin-3-yl-9H-xanthen-9-yl)-8-aza-bicyclo[3.2.1]octane] the Ki (delta opioid receptor) was 211 nM and the Ki (mu opioid receptor) was 350 nM.

Work on `c1ccc(CCN2C3CCC2CC(C2c4ccccc4Oc4cc(-c5nnn[nH]5)ccc42)C3)cc1` (stereo not shown) [Compound 10j, 8-Phenethyl-3-[3-(1H-tetrazol-5-yl)-9H-xanthen-9-yl]-8-aza-bicyclo[3.2.1]octane] yielded a Ki (delta opioid receptor) of 1150 nM.

In the case of `Oc1cccc2c1Oc1cc(-c3cccnc3)ccc1C2C1CC2CCC(C1)N2Cc1cccs1` (stereo not shown) [Compound 10k, 6-Pyridin-3-yl-9-(8-thiophen-2-ylmethyl-8-aza-bicyclo[3.2.1]oct-3-yl)-9H-xanthen-4-ol], the Ki (delta opioid receptor) is reported as 45.2 nM.

With `c1ccc(CN2C3CCC2CC(C2c4ccccc4Oc4cc(-c5cccnc5)ccc42)C3)cc1` (stereo not shown) [Compound 11b, 8-Benzyl-3-(3-pyridin-3-yl-9H-xanthen-9-yl)-8-aza-bicyclo[3.2.1]octane] the Ki (delta opioid receptor) was 70.4 nM and the Ki (mu opioid receptor) was 955 nM.

With `Oc1cccc2c1Oc1cc(-c3cccnc3)ccc1C2C1CC2CCC(C1)N2Cc1ccccn1` (stereo not shown) [Compound 11k, 6-Pyridin-3-yl-9-(8-pyridin-2-ylmethyl-8-aza-bicyclo[3.2.1]oct-3-yl)-9H-xanthen-4-ol] the Ki (delta opioid receptor) was 3.05 nM.

In the case of `CCN(CC)C(=O)c1ccc2c(c1)Oc1ccccc1C2C1CC2CCC(C1)N2CCc1ccccc1` (stereo not shown) [Compound 12a, 9-(8-Phenethyl-8-aza-bicyclo[3.2.1]oct-3-yl)-9H-xanthene-3-carboxylic acid diethylamide], the Ki (delta opioid receptor) is reported as 200 nM and the Ki (mu opioid receptor) is reported as 667 nM.

With `c1ccc(CCN2C3CCC2CC(C2c4ccccc4Oc4cc(-c5cccnc5)ccc42)C3)cc1` (stereo not shown) [Compound 12b, 8-Phenethyl-3-(3-pyridin-3-yl-9H-xanthen-9-yl)-8-aza-bicyclo[3.2.1]octane] the Ki (delta opioid receptor) was 794 nM and the Ki (mu opioid receptor) was 293 nM.

Work on `Oc1cccc2c1Oc1cc(-c3cccnc3)ccc1C2C1CC2CCC(C1)N2Cc1ccccc1` (stereo not shown) [Compound 12k, 9-(8-Benzyl-8-aza-bicyclo[3.2.1]oct-3-yl)-6-pyridin-3-yl-9H-xanthen-4-ol] yielded a Ki (delta opioid receptor) of 39.4 nM.

For `CCN(CC)C(=O)c1ccc2c(c1)Oc1ccccc1C2C1CC2CCC(C1)N2Cc1ccco1` (stereo not shown) [Compound 13a, 9-(8-Furan-2-ylmethyl-8-aza-bicyclo[3.2.1]oct-3-yl)-9H-xanthene-3-carboxylic acid diethylamide], the Ki (delta opioid receptor) was 42 nM and the Ki (mu opioid receptor) was 3020 nM.

`CC(=O)Nc1ccccc1-c1ccc2c(c1)Oc1ccccc1C2C1CC2CCC(C1)N2Cc1ccoc1` (stereo not shown) [Compound 13b, N-{2-[9-(8-Furan-3-ylmethyl-8-aza-bicyclo[3.2.1]oct-3-yl)-9H-xanthen-3-yl]-phenyl}-acetamide] showed a Ki (delta opioid receptor) of 38.7 nM and a Ki (mu opioid receptor) of 1490 nM.

`Oc1cccc2c1Oc1cc(-c3cccnc3)ccc1C2C1CC2CCC(C1)N2CCc1ccccc1` (stereo not shown) [Compound 13k, 9-(8-Phenethyl-8-aza-bicyclo[3.2.1]oct-3-yl)-6-pyridin-3-yl-9H-xanthen-4-ol] showed a Ki (delta opioid receptor) of 281 nM.

With `CC(=O)Nc1ccccc1-c1ccc2c(c1)Oc1ccccc1C2C1CC2CCC(C1)N2Cc1cccs1` (stereo not shown) [Compound 14b, N-{2-[9-(8-Thiophen-2-ylmethyl-8-aza-bicyclo[3.2.1]oct-3-yl)-9H-xanthen-3-yl]-phenyl}-acetamide] the Ki (delta opioid receptor) was 78.1 nM and the Ki (mu opioid receptor) was 2150 nM.

In the case of `COc1cccc2c1Oc1cc(Br)ccc1C2C1CC2CCC(C1)N2` (stereo not shown) [Compound 14k, 3-(3-Bromo-5-methoxy-9H-xanthen-9-yl)-8-aza-bicyclo[3.2.1]octane], the Ki (delta opioid receptor) is reported as 2880 nM and the Ki (mu opioid receptor) is reported as 7380 nM.

Compound `c1cncc(-c2ccc3c(c2)Oc2ccccc2C3C2CC3CCC(C2)N3Cc2ncc[nH]2)c1` (stereo not shown) [Compound 26b, 8-(1H-Imidazol-2-ylmethyl)-3-(3-pyridin-3-yl-9H-xanthen-9-yl)-8-aza-bicyclo[3.2.1]octane] has a Ki (delta opioid receptor) of 338 nM.
